Measurements: patent US20080064667A1, “OXAZOLE DERIVATIVES OF TETRACYCLINES” (Wyeth, priority 2003, published 2008)
≈ marks a conversion by molar mass, not a printed value.

Key:
Experiment in all cases: MIC, broth microdilution (NCCLS)
Assay type in all cases: cell-based
[1] = tested on: E. faecalis GC4555 (ATCC Control); settings: Enterococcus faecalis, Mueller-Hinton II broth, 18-22 hours at 35° C.
Description: (§1) Methods for in Vitro Antibacterial Evaluation
(§2) The Minimum Inhibitory Concentration (MIC)
(§3) Antimicrobial susceptibility testing. The in vitro activities of the antibiotics are determined by the broth microdilution method as recommended by the National Committee for Clinical Laboratory Standards (NCCLS) (1). Mueller-Hinton II broth (MHBII)(BBL Cockeysville, Md.) is the medium employed in the testing procedures. Microtiter plates containing serial dilutions of each antimicrobial agent are inoculated with each organism to yield the appropriate density (10^5 CFU/ml) in a 100 μl final volume. The plates are incubated for 18-22 hours at 35° C. in ambient air.
(§4) 1. NCCLS. 2000. Methods for Dilution Antimicrobial Susceptibility Tests for Bacteria That Grow Aerobically; Approved Standards: M7-A5, vol. 20. National Committe for Clinical Laboratory Standards, Wayne, Pa.

[2] = tested on: M. catarrhalis* GC6907 (Clinical); settings: Moraxella catarrhalis, Mueller-Hinton II broth, 18-22 hours at 35° C.
Description: as §1, §2, §3, §4

[3] = tested on: E. coli GC2203 (ATCC Control); settings: Escherichia coli, Mueller-Hinton II broth, 18-22 hours at 35° C.
Description: as §1, §2, §3, §4

[4] = tested on: E. faecalis GC2242 (Van-resistant); settings: Enterococcus faecalis, Mueller-Hinton II broth, 18-22 hours at 35° C.
Description: as §1, §2, §3, §4

[5] = tested on: S. pneumoniae* GC1894 (Clinical); settings: Streptococcus pneumoniae, Mueller-Hinton II broth, 18-22 hours at 35° C.
Description: as §1, §2, §3, §4

E. coli GC2270 (tet(M)) = settings: Escherichia coli
Description: as §1, §2, §3, §4

[6] = tested on: S. aureus GC1131 (Clinical); settings: Staphylococcus aureus, Mueller-Hinton II broth, 18-22 hours at 35° C.
Description: as §1, §2, §3, §4

[7] = tested on: S. aureus GC1079 (tet(K)); settings: Staphylococcus aureus, Mueller-Hinton II broth, 18-22 hours at 35° C.
Description: as §1, §2, §3, §4

[8] = tested on: S. pyogenes* GC4563 (Clinical); settings: Streptococcus pyogenes, Mueller-Hinton II broth, 18-22 hours at 35° C.
Description: as §1, §2, §3, §4

[9] = tested on: S. aureus GC2216 (ATCC Control); settings: Staphylococcus aureus, Mueller-Hinton II broth, 18-22 hours at 35° C.
Description: as §1, §2, §3, §4

[10] = tested on: S. pneumoniae* GC4465 (Clinical); settings: Streptococcus pneumoniae, Mueller-Hinton II broth, 18-22 hours at 35° C.
Description: as §1, §2, §3, §4

[11] = tested on: E. coli GC4559 (parent GC4560); settings: Escherichia coli, Mueller-Hinton II broth, 18-22 hours at 35° C.
Description: as §1, §2, §3, §4

[12] = tested on: S. aureus GC4536 (Smith MP -In Vivo); settings: Staphylococcus aureus, Mueller-Hinton II broth, 18-22 hours at 35° C.
Description: as §1, §2, §3, §4

E. coli GC1073 (tet(B)) = settings: Escherichia coli
Description: as §1, §2, §3, §4

[13] = tested on: H. influenzae<> GC6896 (ATCC Control); settings: Haemophilus influenzae, Mueller-Hinton II broth, 18-22 hours at 35° C.
Description: as §1, §2, §3, §4

[14] = tested on: C. albicans GC3066 ATCC (Control); settings: Candida albicans, Mueller-Hinton II broth, 18-22 hours at 35° C.
Description: as §1, §2, §3, §4

[15] = tested on: E. coli GC4560 (IMP mutant); settings: Escherichia coli
Description: as §1, §2, §3, §4

[16] = tested on: S. aureus GC6466 (tet(M)); settings: Staphylococcus aureus, Mueller-Hinton II broth, 18-22 hours at 35° C.
Description: as §1, §2, §3, §4

Row | Compound | MIC [1] [mg/L] | MIC [2] [mg/L] | MIC [3] [mg/L] | MIC [4] [mg/L] | MIC [5] [mg/L] | MIC (E. coli GC2270 (tet(M))) [mg/L] | MIC [6] [mg/L] | MIC [7] [mg/L] | MIC [8] [mg/L] | MIC [9] [mg/L] | MIC [10] [mg/L] | MIC [11] [mg/L] | MIC [12] [mg/L] | MIC (E. coli GC1073 (tet(B))) [mg/L] | MIC [13] [mg/L] | MIC [14] [mg/L] | MIC [15] [mg/L] | MIC [16] [mg/L]
1 | CN(C)c1cc2nc(-c3ccc(O)cc3O)oc2c2c1C[C@H]1C[C@H]3[C@H](N(C)C)C(O)=C(C(N)=O)C(=O)[C@@]3(O)C(O)=C1C2=O [Example 12, (6aR,7aS,8S,11aS)-2-(2,4-dihydroxyphenyl)-5,8-bis(dimethylamino)-9,11a,12-trihydroxy-11,13-dioxo-6,6a,7,7a,8,11,11a,13-octahydrotetraceno[2,1-d][1,3]oxazole-10-carboxamide] | 8 (≈ 13.5 µM) | 4 (≈ 6.77 µM) | 32 (≈ 54.2 µM) | 8 (≈ 13.5 µM) | 8 (≈ 13.5 µM) | > 64 | 4 (≈ 6.77 µM) | 8 (≈ 13.5 µM) | 4 (≈ 6.77 µM) | 4 (≈ 6.77 µM) | 8 (≈ 13.5 µM) | > 64 | 8 (≈ 13.5 µM) | > 64 | 16 (≈ 27.1 µM) | > 64 | 4 (≈ 6.77 µM) | 8 (≈ 13.5 µM)
2 | CN(C)c1cc2nc(-c3cc(C(C)(C)C)ccc3O)oc2c2c1C[C@H]1C[C@H]3[C@H](N(C)C)C(O)=C(C(N)=O)C(=O)[C@@]3(O)C(O)=C1C2=O [Example 10, (6aR,7aS,8S,11aS)-2-(5-tert-butyl-2-hydroxyphenyl)-5,8-bis(dimethylamino)-9,11a,12-trihydroxy-11,13-dioxo-6,6a,7,7a,8,11,11a,13-octahydrotetraceno[2,1-d][1,3]oxazole-10-carboxamide] | 16 (≈ 25.4 µM) | > 64 | > 64 | 8 (≈ 12.7 µM) | 8 (≈ 12.7 µM) | > 64 | 8 (≈ 12.7 µM) | 16 (≈ 25.4 µM) | 16 (≈ 25.4 µM) | 16 (≈ 25.4 µM) | 16 (≈ 25.4 µM) | > 64 | 16 (≈ 25.4 µM) | > 64 | > 64 | > 64 | 32 (≈ 50.7 µM) | 16 (≈ 25.4 µM)
3 | COc1cccc(/C=C/c2nc3cc(N(C)C)c4c(c3o2)C(=O)C2=C(O)[C@]3(O)C(=O)C(C(N)=O)=C(O)[C@@H](N(C)C)[C@@H]3C[C@@H]2C4)c1 [Example 27, (6aR,7aS,8S,11aS)-5,8-bis(dimethylamino)-9,11a,12-trihydroxy-2-[(E)-2-(3-methoxyphenyl)ethenyl]-11,13-dioxo-6,6a,7,7a,8,11,11a,13-octahydrotetraceno[2,1-d][1,3]oxazole-10-carboxamide] | 16 (≈ 26 µM) | > 64 | > 64 | 8 (≈ 13 µM) | 64 (≈ 104 µM) | > 64 | 8 (≈ 13 µM) | 8 (≈ 13 µM) | 64 (≈ 104 µM) | 8 (≈ 13 µM) | 64 (≈ 104 µM) | > 64 | 16 (≈ 26 µM) | > 64 | > 64 | > 64 | 32 (≈ 52.1 µM) | 16 (≈ 26 µM)
4 | CN(C)c1cc2nc(/C=C/c3ccccc3)oc2c2c1C[C@H]1C[C@H]3[C@H](N(C)C)C(O)=C(C(N)=O)C(=O)[C@@]3(O)C(O)=C1C2=O [Example 25, (6aR,7aS,8S,11aS)-5,8-bis(dimethylamino)-9,1a,12-trihydroxy-11,13-dioxo-2-[(E)-2-phenylethenyl]-6,6a,7,7a,8,11,11a,13-octahydrotetraceno[2,1-d][1,3]oxazole-10-carboxamide] | 8 (≈ 13.7 µM) | 16 (≈ 27.4 µM) | > 64 | 4 (≈ 6.84 µM) | 32 (≈ 54.7 µM) | > 64 | 8 (≈ 13.7 µM) | 4 (≈ 6.84 µM) | 16 (≈ 27.4 µM) | 4 (≈ 6.84 µM) | 32 (≈ 54.7 µM) | > 64 | 8 (≈ 13.7 µM) | > 64 | > 64 | > 64 | 8 (≈ 13.7 µM) | 4 (≈ 6.84 µM)
